The values that follow come from US20150258043A1, “USE OF SPHINGOID LONG CHAIN BASES AND THEIR ANALOGS IN TREATING AND PREVENTING BACTERIAL INFECTIONS” (YEDA RESEARCH AND DEVELOPMENT CO. LTD., priority 2012, published 2015).

“Also recorded” adds a separate entry of the source. Read-outs that look alike come from different tables or passages of the source. A value given as a limit tells only on which side of the number the result lay.

The subject of one data set is P. aeruginosa strain 762. Nature of the data set: Effect of LCBs on P. aeruginosa growth in vitro (colony counts). The data set is classed as cell-based, Pseudomonas aeruginosa. The following applies: for inhibition of P. aeruginosa growth in vitro (in words): concentrations up to 50 μM. The procedure:
P. aeruginosa strain 762 or ATCC 27853 were grown in LB medium at 37° C. until the early logarithmic phase (OD550 0.2). Bacteria were then diluted in PBS to a concentration of 5×10^3 CFU/ml. Stock solutions of sphingolipids (5 mM in 7.5% n-Octyl-β-D-Glucopyranoside (OGP) or in DMSO were prepared by sonication. Sphingolipids were added to the bacteria (0.1-50 μM in 0.075% OGP or 1% DMSO). Bacteria were incubated with sphingolipids for 2 hr at 37° C. and a sample of 200 μl bacteria solution were plated on LB agar plates, incubated overnight at 37° C. and colonies were counted.
The direct effect of sphingosine and other sphingoid long chain bases (LCBs) on the growth of P. aeruginosa was examined in vitro. Bacteria were incubated with a variety of LCBs and the EC50 values on bacterial growth were determined (Table 1).

For data set [1] the following is noted: superscript reference mark; cited from earlier work.
Where [2] appears, read: Pseudomonas aeruginosa, 762, Table 3, Example 3, method of Example 2, n=3 for each analog, given as ranges, read-out: EC50.
The mark [3] stands for this setting: Pseudomonas aeruginosa, P. aeruginosa strain 762, 2 hrs at 37° C. in 0.075% OGP, colonies counted, at least 3 independent experiments, read-out: EC50 (μM) ± S.D.
[4] abbreviates: Pseudomonas aeruginosa, Table 2 non-inhibitors, strain 762, up to 50 μM in 0.075% OGP, 2 hrs at 37° C., read-out: EC50.

As for `CCCCCCCCCCCCC/C=C/[C@@H](O)[C@H](N)CO` (stereo in doubt) [L-threo-sphingosine], the values for the EC50 in the data set on P. aeruginosa strain 762 (setting [2]) and in the data set with P. aeruginosa strain 762 (setting [3]) were 0.5 to 1 µM and 0.6 ± 0.2 µM, respectively.
Consider `CCCCCCCCCCCCC/C=C/[C@H](O)[C@H](N)COP(=O)(O)O` (stereo in doubt) [Sphingosine-1-P, sphingosine-1-phosphate, reference compound], for which the EC50 in the data set with P. aeruginosa strain 762 (setting [2]) and with P. aeruginosa strain 762 (setting [4]) was above 50 µM in each case. Further, the “inhibition of P. aeruginosa growth in vitro (in words)” value (“inhibition of P. aeruginosa growth” below) in the data set with P. aeruginosa strain 762 was “without effect”; in the data set with P. aeruginosa strain 762 (listed as sphingosine-1-phosphate (S1P)), “did not inhibit growth of the bacteria at all”.
On to `CCCCCCCCCCCCC/C=C/[C@@H](O)CN` [1-desoxymethyl sphingosine, 1-desoxymethylsphingosine], for which the EC50 with P. aeruginosa strain 762 (setting [3]) came to 0.7 ± 0.1 µM.
For the compound `CCCC[C@@H](C)[C@@H](OC(=O)C[C@@H](CC(=O)O)C(=O)O)[C@H](C[C@@H](C)C[C@H](O)CCCC[C@@H](O)C[C@H](O)[C@H](C)N)OC(=O)C[C@@H](CC(=O)O)C(=O)O` [FB1, fumonisin B1, reference compound], the EC50 with P. aeruginosa strain 762 (Pseudomonas aeruginosa, 762, 2 h) was above 50 µM.
With `CCCCCCCCCCCCCCC[C@@H](O)[C@@H](N)CO` [D-erythro-dihydrosphingosine, (2S,3R)-2-aminooctadecane-1,3-diol], the EC50 in the data set with P. aeruginosa strain 762 (setting [2]) is 0.5 to 1 µM; with P. aeruginosa strain 762 (setting [3]) it was 0.6 ± 0.5 µM.
Compound `CCCC[C@@H](C)[C@@H](OC(=O)C[C@@H](CC(=O)O)C(=O)O)[C@H](C[C@@H](C)C[C@H](O)CCCC[C@@H](O)C[C@H](O)[C@H](C)N)OC(=O)C[C@@H](CC(=O)O)C(=O)O` (stereo in doubt) [FB1, fumonisin B1, reference compound] gave an EC50 in the data set with P. aeruginosa strain 762 (Pseudomonas aeruginosa, 762) above 50 µM. Also, in the data set on P. aeruginosa strain 762, the “inhibition of P. aeruginosa growth” value is “without effect; also recorded: did not inhibit growth of the bacteria at all”. In addition, in data set [1], the “pKa (in PBS)” value is listed as >9^4.
As to `CCCCCCCCCCCCCCC[C@@H](O)[C@@H](N)CO` [L-erythro-dihydrosphingosine, L-erythro-dihydrosphingosine (L-erythro-sphinganine)], the EC50 in the data set on P. aeruginosa strain 762 (setting [3]) was determined as 0.8 ± 0.1 µM.
As for `CCCCCCCCCCCCCCC[C@@H](O)[C@H](CO)NC(C)=O` [N-acetyl-D-erythro-dihydrosphingosine], the EC50 in the data set with P. aeruginosa strain 762 (setting [4]) was above 50 µM. In the data set with P. aeruginosa strain 762, the “inhibition of P. aeruginosa growth” value is “reduces the activity”.
On to `CCCCCCCCCCCCCCC[C@H](O)[C@@H](C)N` [1-deoxy-D-erythro-dihydrosphingosine], for which, in the data set with P. aeruginosa strain 762 (setting [3]), the EC50 was 0.7 µM.
In the case of `CCCCCCCCCCCCCC[C@@H](O)[C@@H](O)[C@@H](N)CO` [Phyto-sphingosine, 4-D-hydroxysphinganine (phytosphingosine)], the EC50 in the data set with P. aeruginosa strain 762 (setting [3]) was determined as 0.9 µM. For the same compound, the “category as bacterial growth inhibitor” value with P. aeruginosa strain 762 (classes by EC50) is listed as “strong inhibitor”.
For the compound `CCCCCCCCC/C=C/[C@H](O)[C@H](N)CO` [D-erythro-C14-Sphingosine], in the data set on P. aeruginosa strain 762 (setting [4]), the EC50 was above 50 µM.
As for `CCCCCCCCCCCCC/C=C/[C@H](O)[C@@H](C)N` [1-deoxy-D-erythro-sphingosine], in the data set on P. aeruginosa strain 762 (setting [3]), the concentration giving a half-maximal response (EC50) came to 0.9 ± 0.1 µM.
Consider `CCCCCCCCCCCCCCC[C@@H](O)[C@H](N)CO` (stereo in doubt) [L-threo-dihydrosphingosine (Safingol), L-threo-dihydrosphingosine (L-threo-sphinganine)], for which the EC50 is 0.5 to 1 µM with P. aeruginosa strain 762 (setting [2]) and 0.4 µM with P. aeruginosa strain 762 (setting [3]). Besides, the “inhibition of P. aeruginosa growth” value in the data set on P. aeruginosa strain 762 (listed as L-threo-dihydrosphingosine) is on record as “inhibits as well as the natural occurring D-erythro enantiomer”; in the data set on P. aeruginosa strain 762 (listed as L-threo-sphinganine), “more potent than the neutral ones”.
For `CCCCCCCCCCCCC/C=C/[C@H](O)[C@H](N)CO[C@@H]1O[C@H](CO)[C@H](O)[C@H](O)[C@H]1O` (stereo in doubt) [Galactosyl Sphingosine (Psychosine), Galactosyl D-erythro-sphingosine (psychosine)], the EC50 in the data set on P. aeruginosa strain 762 (setting [2]) was 1 to 5 µM; with P. aeruginosa strain 762 (setting [3]), 2.2 ± 1.4 µM.
In the case of `CCCCCCCCCCCCC/C=C/[C@@H](O)[C@H](CO)NC` [Monomethyl D-erythro-Sphingosine, Monomethyl D-erythro-sphingosine], the 50% effective concentration (EC50) with P. aeruginosa strain 762 (setting [3]) was 1.9 ± 0.1 µM.
Regarding `CCCCCCCCc1ccc(CC[C@](N)(CO)CCP(=O)(O)O)cc1` [(R)-FTY-phosphonate], the EC50 in the data set on P. aeruginosa strain 762 (setting [2]) lay within 5 to 50 µM.
For the compound `CCCCCCCCCCCCC/C=C/C[C@H](N)CO` [3-deoxy-D-erythro-sphingosine], the EC50 in the data set on P. aeruginosa strain 762 (setting [3]) was 0.5 µM.
Still for that read-out and setting: then `CCCCCCCCCCCCC/C=C/[C@H](O)[C@@H](N)CO` [D-threo-sphingosine], with 0.6 ± 0.1 µM.
Consider `CCCCCCCCCCCCCCC[C@H](O)[C@@H](N)CO` [D-threo-dihydrosphingosine, D-threo-dihydrosphingosine (D-threo-sphinganine)], for which the EC50 in the data set on P. aeruginosa strain 762 (setting [3]) is 0.5 ± 0.1 µM.
Take `CCCCCCC/C=C/[C@@H](O)[C@@H](N)CO` [D-erythro-C12-Sphingosine]: in the data set on P. aeruginosa strain 762 (setting [4]), the EC50 was above 50 µM.
In the case of `CCCCCCCCCCCCCCC/C=C/[C@H](O)[C@H](N)CO` [D-erythro-C20-Sphingosine, D-erythro-C20-sphingosine], in the data set on P. aeruginosa strain 762 (setting [3]), the EC50 is 0.3 µM. Also, the “inhibition of P. aeruginosa growth” value with P. aeruginosa strain 762 is reported as “more potent than C18-sphingosine”.
For `CCCCCCCCCCCCC/C=C/[C@@H](O)[C@@H](N)CO` [L-erythro-sphingosine], the EC50 in the data set with P. aeruginosa strain 762 (setting [3]) is 0.8 ± 0.1 µM.
For `CCCCCCCCCCC/C=C/[C@H](O)[C@H](N)CO` [D-erythro-C16-Sphingosine, D-erythro-C16-sphingosine], the EC50 in the data set on P. aeruginosa strain 762 (setting [3]) came to 1 ± 0.2 µM.
